Results from article PMC11189516, “Structure-guided conversion from an anaplastic lymphoma kinase inhibitor into Plasmodium lysyl-tRNA synthetase selective inhibitors” (Communications Biology, 2024).
Like-named read-outs stand apart in the source and are kept apart here.

Key:
[1] = system: HepG2 cells; test: Cytotoxicity assay (CCK-8); format: cell-based, human; conditions: HepG2, 72 h
Protocol: (§1) HepG2 cells (National Collection of Authenticated Cell Cultures) were cultured in Minimum Essential Medium (Gibco) supplemented with 10% of fetal bovine serum, 100 U·mL^−1 penicillin, 100 U·mL^−1 streptomycin (Gibco), 2 mM L-Glutamine (Gibco), 1× NEAA (Gibco) and 1 mM Sodium Pyruvate (Gibco). The cells were hemi-depleted each week with fresh medium and maintained at 1 ~ 2 × 10^6 cells/mL in 6-cm dishes at 37 °C and 5% CO2. Tested with MycoBlue Mycoplasma Detector D101 (Vazyme), the cells were free from mycoplasma contamination.
(§2) Cell viability was analyzed by Cell Counting Kit-8 (CCK8, ApexBio) according to the manufacturer’s protocols. Cells were seeded and cultured at a density of 2.5 × 10^3 cells per well in 100 μL medium in 96-well microplates (Corning). Then, the cells were treated with different concentrations of compound (0, 1 μM, 3 μM, 10 μM, 100 μM, 300 μM). […] After treatment for 72 h, 10 μL of CCK-8 reagent was added to each well and then cultured for 4 h. All experiments were performed in pentaplicate. The absorbance was analyzed at 450 nm using a microplate reader (Tecan) using medium without cells as blanks. Data was processed using GraphPad Prism 9.

[2] = target: T1, PfLysRS (Plasmodium falciparum, UniProt Q8IDJ8); test: Surface plasmon resonance (SPR) assay; format: binding; conditions: immobilized PfLysRS; for Kd: 1 mM L-lysine in running buffer, read-out: dissociation constant (KD)
T1 construct: PfLysRS (77–583) was constructed in the vector pET20b, with a C-terminal 6×His tag; 6xHis (C); made in house; host or cells: E. coli BL21 (DE3)
Protocol: PfLysRS was chemically immobilized on a Biacore CM5 sensorchip (immobilization level ~20000 resonance unit/RU) at pH 5.0 according to the immobilization kit (GE Healthcare). PfLysRS (1.7 nM) was captured for 90 s at a flow of 30 µL·min^−1. Affnity between PfLysRS and compounds was measured by SPR on a Biacore 8 K (GE Healthcare) at 25 °C with a running buffer (0.02 M phosphate buffer pH 7.4, 2.7 mM KCl, 0.137 M NaCl, 0.05% Tween 20, with 1 mM L-lysine). The association time was 90 s, the dissociation time was 120 s, and the flowrate was 30 µL·min^−1. Kinetic evaluation of the interaction between LysRS and compounds was performed by global fitting of the data to a 1:1 interaction model using Biacore Evaluation Software 3.1 (GE Healthcare).

[3] = target: T1, PfLysRS; test: ATP hydrolysis assay (Kinase-Glo) on PfLysRS; format: biochemical; conditions: for LogIC50 (best-fit value): log of nM
Protocol: The ATP hydrolysis assays were based on Kinase-Glo luminescent Kit (Promega). The experiment was carried out in Corning 384-well white flat bottom microplates. The buffer in the reaction contains 25 mM Hepes pH 7.4, 140 mM NaCl, 40 mM MgCl2, 30 mM KCl, 1 mM TCEP, 0.1 mg·mL^−1 BSA, and 0.004% Tween-20. The compounds were diluted to different concentrations with a 5-fold gradient.
For LysRS assays, DMSO was added into negative control wells and L-lysine was removed in positive control wells. 100 nM LysRS in 2.5 μL Hepes buffer was mixed with compounds and incubated for 10 min. Then 5 μL substrate mixture (2 μM ATP, 10 μM L-lysine and 31 nM pyrophosphatase) was added to start the reaction at 37 °C and incubated for 6 h.
When the reaction reaches the planned time, 10 μL diluted Kinase-Glo reagent (1/50 diluted with a buffer containing 50 mM Tris pH 7.5 and 5% glycerol) was added and incubated for 15 min. Luminescence was measured on the Magellan plate reader (Tecan) and nonlinear regression was performed with Prism (GraphPad).

[4] = Cytotoxicity assay (CCK-8); format: cell-based, human; conditions: human, HepG2 cells; HepG2, 72 h
Protocol: as §1, §2

[5] = PfLysRS, source data, read-out: IC50 (best-fit value)

T1 sequence (Q8IDJ8 entry or part of it): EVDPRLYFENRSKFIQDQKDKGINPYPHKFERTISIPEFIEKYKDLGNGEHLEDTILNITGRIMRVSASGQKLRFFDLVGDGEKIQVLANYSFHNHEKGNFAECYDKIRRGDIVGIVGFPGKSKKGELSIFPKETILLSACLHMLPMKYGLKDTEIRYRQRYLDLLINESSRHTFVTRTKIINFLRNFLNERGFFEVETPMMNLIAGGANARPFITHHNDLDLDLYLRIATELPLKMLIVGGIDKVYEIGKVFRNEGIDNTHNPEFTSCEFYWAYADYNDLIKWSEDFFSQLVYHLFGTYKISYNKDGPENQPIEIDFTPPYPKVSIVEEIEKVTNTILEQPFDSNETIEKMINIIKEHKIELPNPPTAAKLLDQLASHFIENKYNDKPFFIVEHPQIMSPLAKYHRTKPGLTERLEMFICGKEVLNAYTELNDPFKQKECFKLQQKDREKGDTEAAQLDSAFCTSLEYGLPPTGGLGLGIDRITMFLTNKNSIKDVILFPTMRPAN

Row | Structure (SMILES) | cytotoxicity to HepG2 [1] | koff [2] | kon [2] | Kd [2] | HillSlope (best-fit value) ([3]; PfLysRS) | LogIC50 (best-fit value) ([3]; PfLysRS) | IC50 [3, 5] | IC50 ([3]; read-out: IC50 against PfLysRS) | CC50 at 72 h [4]
1 | COc1ccc(OC)c(Nc2ncnc(Nc3ccccc3S(=O)(=O)C(C)C)n2)c1 [Compound 36] | no significant toxicity | 0.0144 s⁻¹ | 907000 M/s | 15.9 nM | 1.442 | 2.296 | 198 nM | 198 nM | 
2 | COc1ccccc1Nc1ncnc(Nc2ccccc2S(=O)(=O)C(C)C)n1 [Compound 38] |  | 0.0137 s⁻¹ | 218000 M/s | 62.8 nM | 0.6107 | 2.959 | 910 nM | 910 nM | 7.7 µM
